Assay results as given in BindingDB's records for doi:10.1111/j.1476-5381.1994.tb14064.x (Glaxo Group Research, 1994).

Legend:
[1] = target: Mu-type opioid receptor (Rattus norvegicus, UniProt P33535)
[2] = target: Substance-P receptor (Rattus norvegicus, UniProt P14600)
[3] = target: Adenosine receptor A2a (Rattus norvegicus, UniProt P30543)
[4] = target: Gamma-aminobutyric acid (GABA) B receptor 1 (Rattus norvegicus, UniProt Q6MFX8)
[5] = target: Kappa-type opioid receptor (Rattus norvegicus, UniProt P34975)
[6] = target: D(2) dopamine receptor (Rattus norvegicus, UniProt P61169)
Chain of D(2) dopamine receptor (P61169 whole entry): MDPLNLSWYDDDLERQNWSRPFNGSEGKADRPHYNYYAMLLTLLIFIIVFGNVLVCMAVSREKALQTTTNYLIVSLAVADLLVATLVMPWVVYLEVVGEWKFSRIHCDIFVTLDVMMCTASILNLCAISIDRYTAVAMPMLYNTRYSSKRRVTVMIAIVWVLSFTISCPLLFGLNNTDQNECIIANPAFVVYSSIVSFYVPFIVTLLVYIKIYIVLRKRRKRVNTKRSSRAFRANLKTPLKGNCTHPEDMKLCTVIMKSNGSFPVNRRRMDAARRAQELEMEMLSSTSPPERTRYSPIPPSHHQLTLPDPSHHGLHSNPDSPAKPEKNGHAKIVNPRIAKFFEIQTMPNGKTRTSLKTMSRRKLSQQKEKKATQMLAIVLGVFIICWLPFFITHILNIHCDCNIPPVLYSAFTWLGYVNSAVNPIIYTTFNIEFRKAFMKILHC

[7] = target: Vasopressin V2 receptor (Rattus norvegicus, UniProt Q00788)
[8] = target: Beta-1 adrenergic receptor (Rattus norvegicus, UniProt P18090)
[9] = target: Endothelin-converting enzyme 1 (Rattus norvegicus, UniProt P42893)
[10] = target: Adenosine receptor A1 (Rattus norvegicus, UniProt P25099)
[11] = target: Alpha-1A adrenergic receptor (Rattus norvegicus, UniProt P43140)
Chain of Alpha-1A adrenergic receptor (P43140 whole entry): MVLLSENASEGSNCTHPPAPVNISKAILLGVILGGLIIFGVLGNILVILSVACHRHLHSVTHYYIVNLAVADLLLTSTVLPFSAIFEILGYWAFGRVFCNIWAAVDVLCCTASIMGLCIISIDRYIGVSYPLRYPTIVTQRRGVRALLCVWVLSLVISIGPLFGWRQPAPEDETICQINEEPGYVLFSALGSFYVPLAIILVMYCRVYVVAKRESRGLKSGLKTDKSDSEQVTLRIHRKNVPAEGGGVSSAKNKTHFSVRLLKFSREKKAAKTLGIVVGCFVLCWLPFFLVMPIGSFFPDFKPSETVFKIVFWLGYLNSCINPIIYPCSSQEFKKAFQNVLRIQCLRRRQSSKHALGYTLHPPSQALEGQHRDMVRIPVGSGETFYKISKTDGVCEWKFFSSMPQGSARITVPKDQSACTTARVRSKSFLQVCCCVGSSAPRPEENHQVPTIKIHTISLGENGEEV

[12] = target: Gamma-aminobutyric acid receptor subunit alpha-1 (Rattus norvegicus, UniProt P62813)
[13] = target: 5-hydroxytryptamine receptor 2C (Sus scrofa, UniProt K7GSR7)
[14] = target: 5-hydroxytryptamine receptor 3A (Rattus norvegicus, UniProt P35563)
[15] = target: Alpha-2C adrenergic receptor (Rattus norvegicus, UniProt P22086)
Chain of Alpha-2C adrenergic receptor (P22086 whole entry): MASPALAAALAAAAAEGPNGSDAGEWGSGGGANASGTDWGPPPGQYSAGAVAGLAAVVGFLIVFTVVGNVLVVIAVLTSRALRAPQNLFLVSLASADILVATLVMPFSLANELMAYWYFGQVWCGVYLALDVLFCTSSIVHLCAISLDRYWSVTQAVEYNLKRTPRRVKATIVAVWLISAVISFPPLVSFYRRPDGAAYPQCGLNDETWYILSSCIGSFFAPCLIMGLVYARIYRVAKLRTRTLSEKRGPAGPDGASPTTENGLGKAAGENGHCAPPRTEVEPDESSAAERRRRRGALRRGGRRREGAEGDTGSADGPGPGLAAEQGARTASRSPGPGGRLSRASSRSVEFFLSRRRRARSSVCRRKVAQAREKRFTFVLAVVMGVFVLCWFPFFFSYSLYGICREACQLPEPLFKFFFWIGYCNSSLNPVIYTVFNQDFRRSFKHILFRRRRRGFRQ

[16] = target: Beta-2 adrenergic receptor (Cavia porcellus, UniProt Q8K4Z4)
Chain of Beta-2 adrenergic receptor (Q8K4Z4 whole entry): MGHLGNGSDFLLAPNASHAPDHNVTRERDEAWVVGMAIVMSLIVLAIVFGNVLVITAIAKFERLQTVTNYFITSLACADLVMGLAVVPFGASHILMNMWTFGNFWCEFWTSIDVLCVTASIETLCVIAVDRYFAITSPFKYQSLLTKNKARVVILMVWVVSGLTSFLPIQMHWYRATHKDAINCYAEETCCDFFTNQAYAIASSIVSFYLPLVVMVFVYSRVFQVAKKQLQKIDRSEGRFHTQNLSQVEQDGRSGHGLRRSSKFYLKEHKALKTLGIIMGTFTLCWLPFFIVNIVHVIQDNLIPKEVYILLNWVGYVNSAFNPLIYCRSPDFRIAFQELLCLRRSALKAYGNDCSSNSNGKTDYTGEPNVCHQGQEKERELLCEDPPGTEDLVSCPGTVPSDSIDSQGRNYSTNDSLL

[17] = target: B1 bradykinin receptor (Rattus norvegicus, UniProt P97583)
Chain of B1 bradykinin receptor (P97583 whole entry): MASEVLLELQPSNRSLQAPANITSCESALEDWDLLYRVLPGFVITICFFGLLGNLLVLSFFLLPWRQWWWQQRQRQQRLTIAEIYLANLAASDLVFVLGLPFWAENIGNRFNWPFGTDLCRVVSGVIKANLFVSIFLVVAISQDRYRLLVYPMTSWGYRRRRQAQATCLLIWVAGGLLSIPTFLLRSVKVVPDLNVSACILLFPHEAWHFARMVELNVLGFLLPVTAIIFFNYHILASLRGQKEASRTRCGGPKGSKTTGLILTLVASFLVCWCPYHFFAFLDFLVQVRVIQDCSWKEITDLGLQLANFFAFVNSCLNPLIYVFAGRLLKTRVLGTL

[18] = target: Bombesin receptor subtype-3 (Rattus norvegicus, UniProt Q8K418)
[19] = target: Calcitonin gene-related peptide 1 (Rattus norvegicus, UniProt P01256)
Chain of Calcitonin gene-related peptide 1 (P01256 83-119 limits assumed): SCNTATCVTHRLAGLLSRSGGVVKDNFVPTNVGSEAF

[20] = target: Gastrin/cholecystokinin type B receptor (Rattus norvegicus, UniProt P30553)
[21] = target: Muscarinic acetylcholine receptor M2 (Rattus norvegicus, UniProt P10980)
[22] = target: Muscarinic acetylcholine receptor M1 (Rattus norvegicus, UniProt P08482)
Chain of Muscarinic acetylcholine receptor M1 (P08482 whole entry): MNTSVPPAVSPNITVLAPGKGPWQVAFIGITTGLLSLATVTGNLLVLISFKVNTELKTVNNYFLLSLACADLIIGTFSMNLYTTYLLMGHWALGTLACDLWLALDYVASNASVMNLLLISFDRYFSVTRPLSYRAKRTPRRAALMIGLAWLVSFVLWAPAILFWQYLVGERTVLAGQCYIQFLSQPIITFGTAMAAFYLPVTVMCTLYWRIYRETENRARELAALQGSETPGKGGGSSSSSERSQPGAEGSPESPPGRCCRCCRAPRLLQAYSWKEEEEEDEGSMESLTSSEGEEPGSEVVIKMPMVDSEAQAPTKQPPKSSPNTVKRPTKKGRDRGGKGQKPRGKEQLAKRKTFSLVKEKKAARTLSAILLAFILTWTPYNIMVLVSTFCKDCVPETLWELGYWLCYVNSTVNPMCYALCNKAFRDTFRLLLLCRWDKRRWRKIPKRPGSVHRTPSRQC

[23] = target: Muscarinic acetylcholine receptor M3 (Rattus norvegicus, UniProt P08483)
Chain of Muscarinic acetylcholine receptor M3 (P08483 whole entry): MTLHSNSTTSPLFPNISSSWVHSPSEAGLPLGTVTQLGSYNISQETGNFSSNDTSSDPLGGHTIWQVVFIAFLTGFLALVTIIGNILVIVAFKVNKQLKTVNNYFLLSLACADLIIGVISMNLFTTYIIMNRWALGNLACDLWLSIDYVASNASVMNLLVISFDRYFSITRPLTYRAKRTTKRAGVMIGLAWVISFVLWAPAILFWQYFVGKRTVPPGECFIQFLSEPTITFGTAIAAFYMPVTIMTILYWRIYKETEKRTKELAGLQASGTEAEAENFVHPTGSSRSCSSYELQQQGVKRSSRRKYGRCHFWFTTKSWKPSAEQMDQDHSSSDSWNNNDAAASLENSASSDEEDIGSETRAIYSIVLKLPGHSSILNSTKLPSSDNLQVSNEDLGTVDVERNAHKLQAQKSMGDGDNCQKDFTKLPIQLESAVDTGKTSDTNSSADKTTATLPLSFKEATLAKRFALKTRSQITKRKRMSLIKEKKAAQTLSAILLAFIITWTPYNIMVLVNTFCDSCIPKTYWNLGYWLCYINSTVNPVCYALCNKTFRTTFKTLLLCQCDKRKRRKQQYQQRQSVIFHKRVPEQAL

[24] = target: D(1A) dopamine receptor (Rattus norvegicus, UniProt P18901)
Chain of D(1A) dopamine receptor (P18901 whole entry): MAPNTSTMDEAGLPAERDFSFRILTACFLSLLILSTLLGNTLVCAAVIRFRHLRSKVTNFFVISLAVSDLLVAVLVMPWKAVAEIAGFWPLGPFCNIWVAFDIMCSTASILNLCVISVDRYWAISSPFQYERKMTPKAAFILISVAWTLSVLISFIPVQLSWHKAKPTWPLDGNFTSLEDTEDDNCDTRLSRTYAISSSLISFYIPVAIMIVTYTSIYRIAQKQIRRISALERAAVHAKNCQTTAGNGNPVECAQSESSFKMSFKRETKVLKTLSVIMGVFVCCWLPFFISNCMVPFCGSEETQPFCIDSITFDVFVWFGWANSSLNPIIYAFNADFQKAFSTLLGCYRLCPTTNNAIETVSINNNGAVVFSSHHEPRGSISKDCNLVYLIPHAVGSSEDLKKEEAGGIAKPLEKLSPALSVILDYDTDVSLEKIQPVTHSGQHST

[25] = target: Galanin peptides (Rattus norvegicus, UniProt P10683)
Chain of Galanin peptides (P10683 33-61 limits assumed): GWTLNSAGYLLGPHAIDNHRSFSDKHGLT

[26] = target: Glutamate receptor ionotropic, NMDA 1 (Rattus norvegicus, UniProt P35439)
[27] = target: Glycine amidinotransferase, mitochondrial (Rattus norvegicus, UniProt P50442)
[28] = target: Histamine H1 receptor (Rattus norvegicus, UniProt P31390)
Chain of Histamine H1 receptor (P31390 whole entry): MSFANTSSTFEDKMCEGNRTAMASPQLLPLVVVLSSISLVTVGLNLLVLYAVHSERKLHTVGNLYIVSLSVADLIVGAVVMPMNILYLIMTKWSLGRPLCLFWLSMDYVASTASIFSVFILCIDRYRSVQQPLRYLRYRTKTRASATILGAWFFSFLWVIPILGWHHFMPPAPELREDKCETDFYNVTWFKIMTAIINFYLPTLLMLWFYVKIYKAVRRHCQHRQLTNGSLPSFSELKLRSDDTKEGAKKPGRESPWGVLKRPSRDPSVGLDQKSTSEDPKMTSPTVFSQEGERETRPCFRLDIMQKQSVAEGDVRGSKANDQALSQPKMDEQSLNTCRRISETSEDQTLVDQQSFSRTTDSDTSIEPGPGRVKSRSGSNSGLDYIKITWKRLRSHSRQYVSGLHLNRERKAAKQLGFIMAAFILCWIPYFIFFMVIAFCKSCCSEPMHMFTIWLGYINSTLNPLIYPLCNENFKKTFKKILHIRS

[29] = target: Hrh3 protein (Rattus norvegicus, UniProt Q5PPG3)
[30] = target: Nicotinic acetylcholine receptor (Rattus leucopus, UniProt Q62594)
Chain of Nicotinic acetylcholine receptor (Q62594 whole entry): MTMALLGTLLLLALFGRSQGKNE

[31] = target: Substance-K receptor (Rattus norvegicus, UniProt P16610)
[32] = target: Neuromedin-K receptor (Mus musculus, UniProt P47937)
[33] = target: Pro-neuropeptide Y (Rattus norvegicus, UniProt P07808)
[34] = target: Somatostatin (Rattus norvegicus, UniProt P60042)
[35] = target: Rat vasopressin-neurophysin (Rattus norvegicus, UniProt Q6LEI5)
Chain of Rat vasopressin-neurophysin (Q6LEI5 whole entry): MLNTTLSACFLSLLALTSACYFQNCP

[36] = target: VIP peptides (Rattus norvegicus, UniProt P01283)
Chain of VIP peptides (P01283 125-152 limits assumed): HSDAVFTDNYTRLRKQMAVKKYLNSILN

Chain of Mu-type opioid receptor (P33535 whole entry): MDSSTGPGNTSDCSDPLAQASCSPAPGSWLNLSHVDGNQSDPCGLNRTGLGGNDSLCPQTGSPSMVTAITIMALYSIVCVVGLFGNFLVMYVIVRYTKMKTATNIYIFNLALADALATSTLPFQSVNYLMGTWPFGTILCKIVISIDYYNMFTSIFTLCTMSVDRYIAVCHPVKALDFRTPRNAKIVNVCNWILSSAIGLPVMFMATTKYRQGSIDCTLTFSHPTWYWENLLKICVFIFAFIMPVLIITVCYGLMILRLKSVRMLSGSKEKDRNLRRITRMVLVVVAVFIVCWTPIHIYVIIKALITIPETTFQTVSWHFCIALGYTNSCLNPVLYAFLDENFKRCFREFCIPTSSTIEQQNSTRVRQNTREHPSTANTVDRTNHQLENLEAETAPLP

SMILES: Cn1cc(C(=O)OCC2CCN(CCNS(C)(=O)=O)CC2)c2ccccc21 [GR 113808]
- Ki [1]: > 10 µM
- Ki [2]: > 10 µM
- Ki [3]: > 10 µM
- Ki [4]: > 10 µM
- Ki [5]: > 10 µM
- Ki [6]: > 10 µM
- Ki [7]: > 10 µM
- Ki [8]: 7.94 µM
- Ki [9]: > 10 µM
- Ki [10]: > 10 µM
- Ki [11]: > 10 µM
- Ki [12]: > 10 µM
- Ki [13]: > 10 µM
- Ki [14]: 1 µM
- Ki [15]: > 10 µM
- Ki [16]: > 10 µM
- Ki [17]: > 10 µM
- Ki [18]: > 10 µM
- Ki [19]: > 10 µM
- Ki [20]: > 10 µM
- Ki [21]: > 10 µM
- Ki [22]: 6.31 µM
- Ki [23]: > 10 µM
- Ki [24]: > 10 µM
- Ki [25]: > 10 µM
- Ki [26]: > 10 µM
- Ki [27]: > 10 µM
- Ki [28]: > 10 µM
- Ki [29]: > 10 µM
- Ki [30]: > 10 µM
- Ki [31]: > 10 µM
- Ki [32]: > 10 µM
- Ki [33]: > 10 µM
- Ki [34]: > 10 µM
- Ki [35]: > 10 µM
- Ki [36]: > 10 µM
